This is an account of results in the METLIN SMRT retention time set (Domingo-Almenara et al. 2019).

SMILES strings stand for the structures.

This data set in a line: gradient 5% acetonitrile 3 min, to 50% in 2 min, to 85% in 15 min, held 3 min, 100 µL/min. To be noted: column: Zorbax Extend-C18 2.1 x 50 mm; eluents: water / acetonitrile, 0.1% formic acid. The method in brief:
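The mobile phases were water and acetonitrile, each with 0.1% formic acid, pumped at 100 μL/min through a Zorbax Extend-C18 column (2.1 × 50 mm, 1.8 μm). Pure standards were injected as mixtures of ~100 molecules and detected by a quadrupole time-of-flight mass spectrometer in positive and negative ionization mode. Retention time came from computationally picked adduct peaks, each inspected by hand.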
As for `Cc1cccc(CNC(=O)Cn2c(C)cc(-c3nnc(-c4ccccc4)o3)c2C)c1`, the RP-LC retention time was found to be 921 s.

`Cc1ccc(CNC(=O)c2nc(Nc3ccc(F)cc3)c3ccccc3n2)o1` gave an RP-LC retention time of 784 s.

In turn, `O=C(Nc1ccc2nc3n(c(=O)c2c1)CCCCC3)C(=O)NC1CC1` yielded an RP-LC retention time of 687 s.

Regarding `COc1ccc(Cl)cc1NS(=O)(=O)c1cc2n(c1)CCN(C(C)C)C2=O`, the RP-LC retention time was found to be 803 s.

Take `Cc1ccc2c(C(=O)N3CCC(C)CC3)cc(NC(=O)C3CCC3)cc2n1`: the RP-LC retention time was found to be 652 s.

Turning to `COc1cccc(-c2[nH]ncc2CN2CCC3(CC2)CC(O)CCO3)c1` (stereo unspecified), the RP-LC retention time was determined as 576 s.

Take `Cn1cc(C2=CCN(C(=O)c3cccc(Cl)c3)CC2)c2cccnc21`: the RP-LC retention time was found to be 901 s.

For the compound `CCCN(CC1CCOC1)C(=O)Nc1ccc(C)c(C)c1` (stereo unspecified), the RP-LC retention time turned out to be 869 s.

The compound `Cc1cc(Cl)ccc1S(=O)(=O)N1CCC(OC2CCN(c3ccccc3)C2=O)CC1` (stereo unspecified) showed an RP-LC retention time of 1080 s.

As to `CCNc1cc(N2CCCC(CCC(=O)N3CCCC(C(=O)OCC)C3)C2)ncn1` (stereo unspecified), the RP-LC retention time was determined as 664 s.

The compound `COc1ccccc1-c1noc(CCc2nnc3ccc(N4CCN(Cc5ccccc5)CC4)nn23)n1` registered an RP-LC retention time of 616 s.

Turning to `CC(NC(=O)c1ccco1)c1nc(-c2ccc(Oc3ccccc3)cc2)no1` (stereo unspecified), the RP-LC retention time was found to be 1030 s.

With `O=C(Nc1nccnc1C(=O)NC1CC1)c1ccccc1`, the RP-LC retention time worked out at 732 s.

`Cc1noc([C@@H]2CN(C(=O)Cc3ccsc3)C[C@H]2C(N)=O)n1` gave an RP-LC retention time of 618 s.

In turn, `CS(=O)(=O)N1CCC(C(=O)Nc2ccccc2F)Oc2ccc(Cl)cc21` (stereo unspecified) gave an RP-LC retention time of 960 s.

Take `CCC1Oc2ccc(S(=O)(=O)N3CCC(C(=O)Nc4cccc(C)c4C)CC3)cc2NC1=O` (stereo unspecified): the RP-LC retention time was 837 s.

The compound `CCOc1cc(=O)c(C(N)=O)nn1-c1ccc(F)cc1` registered an RP-LC retention time of 622 s.

In turn, `Cc1ccc(-c2ncc(C(=O)NCCN3CCCCCC3)c(-c3ccncc3)n2)cc1` yielded an RP-LC retention time of 637 s.

On to `CCC(CC)C(c1ccc(Nc2nc3ccccc3s2)cc1)n1cncn1` (stereo unspecified), for which the RP-LC retention time came to 1150 s.

The compound `COC(=O)c1cc(OCC(=O)Nc2ccc3c(c2)OCCO3)c2ccccc2n1` gave an RP-LC retention time of 755 s.

Consider `Cc1cccc(Sc2nccnc2N2CCC(C(=O)NCC3CCCO3)CC2)c1` (stereo unspecified), for which the RP-LC retention time stood at 888 s.

In turn, `CC(C)CC(=O)NCCc1nc2cccnc2n1-c1ccccc1` came in with an RP-LC retention time of 661 s.

Compound `COc1ccc(OC)c(NC(=O)c2[nH]c(C)c(S(=O)(=O)N3CCCCC3)c2C)c1` returned an RP-LC retention time of 1020 s.

Regarding `CCn1cccc1-c1nc(-c2ccncc2)no1`, the RP-LC retention time amounted to 833 s.

`Cc1ccc(NC(=O)Cn2cc(C(=O)N3CCCC3)c(=O)c3ccc(C)nc32)cc1` showed an RP-LC retention time of 713 s.

The compound `O=C(C1CCN(S(=O)(=O)N2CCOCC2)CC1)N1CCC(c2nc(C3CCOCC3)no2)C1` (stereo unspecified) displayed an RP-LC retention time of 656 s.

For the compound `Cc1nnc(N2CCCC(C(=O)NCCC3=CCCCC3)C2)c2nn(-c3ccc(Cl)cc3)c(C)c12` (stereo unspecified), the RP-LC retention time is 861 s.

The compound `CCCC(=O)N1CCC(C(=O)Nc2nnc(C)s2)CC1` had an RP-LC retention time of 590 s.

`O=C(c1cnccn1)N1CCCCC1c1nc(-c2ccc(F)cc2)no1` (stereo unspecified): the RP-LC retention time is 918 s.

On to `CCOc1ccc(NC(=O)CN2C(=O)c3ccccc3Sc3ncccc32)cc1`, for which the RP-LC retention time came to 843 s.

In turn, `COc1ccc(C(=O)N2CCC3(C2)C(=O)Nc2ccccc23)c(OC)c1` (stereo unspecified) had an RP-LC retention time of 655 s.

For the compound `COc1cc2nccc(Oc3ccc(NC(=O)C4(C(=O)Nc5ccc(F)cc5)CC4)cc3)c2cc1OC`, the RP-LC retention time was determined as 833 s.

Regarding `CCc1noc(-c2cccnc2N2CCCN(Cc3ccccc3Cl)CC2)n1`, the RP-LC retention time amounted to 679 s.

As for `COc1ccc(C(=O)N2CCC(n3c(-c4ccco4)nc4cccnc43)C2)cc1OC` (stereo unspecified), the RP-LC retention time came out at 644 s.

The compound `Cc1ccc(NC(=O)N2CCCC2c2nc(-c3ccc(F)cc3F)no2)c(Cl)c1` (stereo unspecified) yielded an RP-LC retention time of 1110 s.

Consider `CCN1C(=O)COc2ccc(-c3nc(NC(=O)c4cccc(Br)c4)sc3C)cc21`, for which the RP-LC retention time was 1150 s.

`COC(=O)N1CCc2ccccc2C1C(=O)Nc1ccccc1C(F)(F)F` (stereo unspecified) showed an RP-LC retention time of 877 s.

The compound `Cc1noc(C)c1CN1CC2(CCCCC2)CC1COc1ccncc1` (stereo unspecified) had an RP-LC retention time of 637 s.

In turn, `CCCN(C)CC1(O)CCC2(CCN(C(=O)c3ccc(Cl)s3)CC2)CC1` had an RP-LC retention time of 647 s.

`COCC(=O)NC1CCC12CCN(S(=O)(=O)c1c(C)nn(C)c1C)CC2` (stereo unspecified) showed an RP-LC retention time of 657 s.

In turn, `COc1ccc2nc(C(=O)NCc3ccccc3F)cn2n1` displayed an RP-LC retention time of 806 s.

Turning to `Cc1cc(F)ccc1NC(=O)CN1C(=O)C2CCCCN2c2ccc(S(=O)(=O)N(C)C)cc21` (stereo unspecified), the RP-LC retention time was 896 s.

In the case of `O=C1CCN(C(=O)Nc2ccccc2)CCOCCN1`, the RP-LC retention time was 613 s.

`CN(C)S(=O)(=O)c1ccc(-c2nnc(C(=O)N3CCCCC3)o2)cc1`: the RP-LC retention time was found to be 824 s.

`CC1CCc2nc(NC(=O)CSc3nnc(-c4ccccc4)o3)sc2C1` (stereo unspecified) displayed an RP-LC retention time of 989 s.

Take `Cn1nc(C(=O)N2CCCN(c3cc(-c4ccccc4)[nH]n3)CC2)c2ccccc21`: the RP-LC retention time was found to be 700 s.

For `COc1cc(C(=O)Nc2nc(-c3ccc4c(c3)N(C)C(=O)CO4)cs2)cc(OC)c1OC`, the RP-LC retention time was determined as 860 s.

For `COCc1nc2c(NC(=O)C(C)C)cccn2n1`, the RP-LC retention time was 653 s.

`CCOC(=O)c1cc([N+](=O)[O-])sc1NC(=O)c1c(-c2ccccc2Cl)noc1C` gave an RP-LC retention time of 1220 s.

The compound `COc1ccc(C)cc1NC(=O)C1CCCN(c2ncnc3c2nc2n3CCCCC2)C1` (stereo unspecified) came in with an RP-LC retention time of 864 s.

In the case of `COC1CN(c2cccc(F)c2)C12CCN(Cc1ccc(C)o1)CC2` (stereo unspecified), the RP-LC retention time was 745 s.

Regarding `CCN(CC)C(=O)c1ccc(C2=CC3(CCNCC3)Oc3cccc(O)c32)cc1`, the RP-LC retention time worked out at 725 s.

Compound `CC(O)Cn1cnc2c1c(=O)n(C)c(=O)n2C` (stereo unspecified) had an RP-LC retention time of 1100 s.

The compound `Cc1ccc(NC(=O)c2cc(C(C)C)n3nccc3n2)cc1` had an RP-LC retention time of 1140 s.

Regarding `CCNC(=O)c1sc2nc(-c3cccc(F)c3)c(NCCOC)n2c1C`, the RP-LC retention time was 800 s.

`COc1ccc(Cl)cc1NC(=O)N1CCCC1c1nc(-c2ccccc2)no1` (stereo unspecified) displayed an RP-LC retention time of 1140 s.

As for `Cc1ccc(NC(=O)Nc2cccn3nc(C)nc23)cc1`, the RP-LC retention time amounted to 803 s.

Take `Cc1cnc(-c2ccncc2)n1CC1CN(S(=O)(=O)C(C)C)C1`: the RP-LC retention time was 573 s.

In turn, `CN1C(=O)c2ccccc2Oc2ccc(C(=O)NCc3ccc(F)cc3)cc21` gave an RP-LC retention time of 868 s.

In turn, `COc1ccccc1OCC(O)CN1CCN(CC(=O)Nc2c(C)cccc2C)CC1` (stereo unspecified) registered an RP-LC retention time of 683 s.

The compound `Cc1ccc(C2Cn3nnc(-c4nc(-c5ccccc5)no4)c3CO2)c(C)c1` (stereo unspecified) came in with an RP-LC retention time of 1240 s.

`CCn1c(C(=O)NCCc2ccc(S(N)(=O)=O)cc2)cc2sc(Cl)cc21` yielded an RP-LC retention time of 860 s.

Compound `CCN1C(=O)CN(C(=O)c2cccs2)CC12CCOCC2` returned an RP-LC retention time of 631 s.

As to `Cc1nn(C2CCS(=O)(=O)C2)c2nc(-c3ccco3)cc(C(=O)NCC3CCCO3)c12` (stereo unspecified), the RP-LC retention time is 683 s.

`Cc1ccc(F)cc1S(=O)(=O)N1CCN(c2nc3ccncc3n(C)c2=O)CC1` returned an RP-LC retention time of 586 s.

`COc1ccc(-c2nc3cnccn3c2Nc2ccc(C(=O)NC3CCCCC3)cc2)cc1OC` had an RP-LC retention time of 755 s.

`O=C(c1nccc2ccccc12)N1CCC(c2noc(C3CC3)n2)C1` (stereo unspecified): the RP-LC retention time is 745 s.

`CCOc1ccccc1NC(=O)c1csc2c1CCC(C)C2` (stereo unspecified) displayed an RP-LC retention time of 1320 s.

`Cc1ccc2oc(-c3nnc(C(=O)NCCCN4CCCC4)o3)c(C)c2c1` gave an RP-LC retention time of 688 s.

Turning to `CCCNC(=O)N1CCC(c2noc(-c3ccccc3)n2)C1` (stereo unspecified), the RP-LC retention time came out at 763 s.

In turn, `COc1ccc(-c2nc(NC(=O)c3ccc(C#N)cc3)sc2C)cc1` came in with an RP-LC retention time of 962 s.

`COc1ccccc1CNC(=O)C1CCCN(c2ccc(=O)n(-c3cccc(Cl)c3)n2)C1` (stereo unspecified) had an RP-LC retention time of 883 s.

For `CC(=O)c1cccc(NC(=O)CN2C(=O)NC3(CCC(C)CC3)C2=O)c1` (stereo unspecified), the RP-LC retention time stood at 746 s.

As for `Cc1ncsc1CN1CCCC(n2c(C)cnc2-c2cccnc2)C1` (stereo unspecified), the RP-LC retention time is 527 s.

In turn, `COc1ccc([C@H]2Sc3ccccc3N(CCN(C)C)C(=O)[C@H]2OC(C)=O)cc1` displayed an RP-LC retention time of 704 s.

`CC1CN([C@H]2C[C@@H](N=[N+]=[N-])[C@@H](CO)O2)C(=O)NC1=O` (stereo partly specified) displayed an RP-LC retention time of 644 s.

Consider `COc1cccc(NC(=O)C2CCN(c3cc(N4CCCC4)ncn3)CC2)c1`, for which the RP-LC retention time turned out to be 652 s.

Take `COCC(=O)N(C)CCc1noc(-c2ccc(C(=O)N3CCCC3)cc2)n1`: the RP-LC retention time came to 626 s.

`COc1ccccc1C(=O)Nc1cnc(-c2ccc(Cl)cc2)nc1`: the RP-LC retention time was determined as 1170 s.

In turn, `Cc1ccc(NC(=O)C2CCN(S(=O)(=O)c3ccc4c(c3)sc(=O)n4C(C)C)CC2)cc1C` registered an RP-LC retention time of 953 s.

`CCCn1c(=O)c(C)nc2cc(-c3noc(Cc4cccc(F)c4)n3)ccc21` displayed an RP-LC retention time of 1090 s.
